Experimental data: PMC8847695 (Frontiers in Chemistry, 2022)
“Also recorded” adds a separate entry of the source.

What was measured:
DOT1L = target: T1, DOT1L (Homo sapiens, UniProt Q8TEK3); assay: ITC validation, DOT1L; assay type: binding; conditions: 25°C, detection level >1 mM
T1 construct: made in house; host or cells: E. coli BL21 (DE3) pLysS
Experimental: (§1) The protein was buffer exchanged into 50 mM HEPES, 100 mM NaCl, 2 mM MgCl2, and 1 mM TCEP at pH 7.4. The protein was concentrated to 50–100 µM, and DMSO was added to a final concentration of 5% (^V/V). The fragments were dissolved in DMSO to yield a 100 mM stock solution, which was further diluted with buffer to yield a 5 mM solution also containing 5% (^V/V) DMSO. A MicroCal iTC200 (Malvern) instrument was used with the measuring cell set to 25°C, while the cooling jacket was set to 15°C. After a 120 s initial delay following temperature equilibration, a first injection with 0.5 µl over 2 s was done. […] The measurement was conducted using a needle stirring speed of 1,000 rpm and a reference heat rate of 10 μcal/s. Experiments were aborted, when the measuring cell was unable to reach a heat rate greater than 9 μcal/s during equilibration. Affinities were averaged from duplicates.

CAMK1G (1-320) = target: T2, CAMK1G (1-320) (Homo sapiens, UniProt Q96NX5); assay: STD-NMR fragment screening, CAMK1G; assay type: binding; conditions: 1 mM fragment, 20 µM protein; hit if peak in difference spectrum three times higher than local noise
T2 construct: made in house; host or cells: E. coli BL21 (DE3) pLysS
Summary of the method: (§2)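 Saturation-transfer difference NMR was run at 25°C and 700 MHz with 20 µM protein, two fragments at 1 mM each, and 10% DMSO-d6. On-resonance saturation was at 0.5–0.6 ppm and off-resonance at 40 ppm, with a 3 s Gaussian-pulse train. A hit required a difference-spectrum peak at least three times the local noise.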

IDO1 = target: T3, IDO1 (Homo sapiens, UniProt P14902); assay: ITC validation, IDO1; assay type: binding
T3 construct: His-tag of pET15b with TEV site (thrombin site replaced) (cleaved yes); made in house; host or cells: E. coli Rosetta 2 (DE3) pLysS
Experimental: (§3) The protein was buffer exchanged into 50 mM HEPES, 100 mM NaCl, 2 mM MgCl2, and 1 mM TCEP at pH 7.4. The protein was concentrated to 50–100 µM, and DMSO was added to a final concentration of 5% (^V/V). The fragments were dissolved in DMSO to yield a 100 mM stock solution, which was further diluted with buffer to yield a 5 mM solution also containing 5% (^V/V) DMSO. A MicroCal iTC200 (Malvern) instrument was used with the measuring cell set to 25°C, while the cooling jacket was set to 15°C. After a 120 s initial delay following temperature equilibration, a first injection with 0.5 µl over 2 s was done. Nineteen injections with 2 µl over 4 s were performed every 180 s ([Ruhmann et al., 2015]). The measurement was conducted using a needle stirring speed of 1,000 rpm and a reference heat rate of 10 μcal/s. Experiments were aborted, when the measuring cell was unable to reach a heat rate greater than 9 μcal/s during equilibration. Affinities were averaged from duplicates.

AAK1 (121-471) = AAK1 (121-471) (Homo sapiens, UniProt Q2M2I8); assay: STD-NMR fragment screening, AAK1; assay type: binding; conditions: 1 mM fragment, 20 µM protein; hit if peak in difference spectrum three times higher than local noise
Summary of the method: as §2

AAK1 = AAK1 (Homo sapiens, UniProt Q2M2I8); assay: ITC validation, AAK1; assay type: binding; conditions: for Kd: ITC, 25°C, 5% DMSO, pH 7.4, duplicates
Experimental: as §1

DOT1L (1-416) = target: T4, DOT1L (1-416) (Homo sapiens, UniProt Q8TEK3); assay: STD-NMR fragment screening, DOT1L; assay type: binding; conditions: 1 mM fragment, 20 µM protein; hit if peak in difference spectrum three times higher than local noise
T4 construct: made in house; host or cells: E. coli BL21 (DE3) pLysS
Summary of the method: as §2

CAMK1G = target: T5, CAMK1G (Homo sapiens, UniProt Q96NX5); assay: ITC validation, CAMK1G; assay type: binding; conditions: for Kd: ITC, 25°C, 5% DMSO, pH 7.4, duplicates, 7405: fragment concentration reduced to 2 mM
T5 construct: made in house; host or cells: E. coli BL21 (DE3) pLysS
Experimental: as §1

IDO1 (1-435) = target: T6, IDO1 (1-435) (Homo sapiens, UniProt P14902); assay: STD-NMR fragment screening, IDO1; assay type: binding; conditions: 1 mM fragment, 20 µM protein; hit if peak in difference spectrum three times higher than local noise
T6 construct: His-tag of pET15b with TEV site (thrombin site replaced) (cleaved yes); made in house; host or cells: E. coli Rosetta 2 (DE3) pLysS
Summary of the method: as §2

[1] = GSH stability assay (HPLC); assay type: physicochemical; conditions: t1/2 > 20 h defined as sufficiently stable
Experimental: A 500 µM fragment solution in PBS buffer pH 7.4, 10% acetonitrile and 200 µM indoprofen as an internal standard, was added to 10 mM GSH solution in a 1:2 ratio. The reaction temperature was 40°C. […] The reaction of fragments with GSH was determined by measuring the decreasing area under the curve (AUC) of the compound relative to the internal standard indoprofen. The gradient was chosen depending on the polarity of fragments to be either one of the following: […]

JNK2 = JNK2 (Homo sapiens, UniProt P45984); assay: ITC, JNK2; assay type: binding
Experimental: as §3

JNK3 = JNK3 (Homo sapiens, UniProt P53779); assay: ITC, JNK3; assay type: binding
Experimental: as §3

[2] = ITC, 25°C, 5% DMSO, pH 7.4, duplicates

Sequence of AAK1 (Q2M2I8 46-315 limits assumed): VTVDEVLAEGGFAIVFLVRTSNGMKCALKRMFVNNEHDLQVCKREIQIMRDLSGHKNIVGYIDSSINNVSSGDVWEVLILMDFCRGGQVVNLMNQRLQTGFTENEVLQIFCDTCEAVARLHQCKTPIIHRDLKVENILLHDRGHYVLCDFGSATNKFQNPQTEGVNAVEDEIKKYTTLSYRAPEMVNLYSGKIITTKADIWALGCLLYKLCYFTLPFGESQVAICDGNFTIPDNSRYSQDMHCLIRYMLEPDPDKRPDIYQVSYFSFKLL
T5 sequence (Q96NX5 1-320): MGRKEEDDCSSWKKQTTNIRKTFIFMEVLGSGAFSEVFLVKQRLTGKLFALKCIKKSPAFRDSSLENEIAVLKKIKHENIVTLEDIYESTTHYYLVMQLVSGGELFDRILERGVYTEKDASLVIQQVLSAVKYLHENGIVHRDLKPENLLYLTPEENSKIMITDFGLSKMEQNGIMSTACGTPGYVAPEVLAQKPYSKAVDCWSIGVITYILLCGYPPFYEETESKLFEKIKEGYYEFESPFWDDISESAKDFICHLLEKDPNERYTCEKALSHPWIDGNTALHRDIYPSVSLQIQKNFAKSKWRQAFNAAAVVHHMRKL
T1 sequence (Q8TEK3 1-416): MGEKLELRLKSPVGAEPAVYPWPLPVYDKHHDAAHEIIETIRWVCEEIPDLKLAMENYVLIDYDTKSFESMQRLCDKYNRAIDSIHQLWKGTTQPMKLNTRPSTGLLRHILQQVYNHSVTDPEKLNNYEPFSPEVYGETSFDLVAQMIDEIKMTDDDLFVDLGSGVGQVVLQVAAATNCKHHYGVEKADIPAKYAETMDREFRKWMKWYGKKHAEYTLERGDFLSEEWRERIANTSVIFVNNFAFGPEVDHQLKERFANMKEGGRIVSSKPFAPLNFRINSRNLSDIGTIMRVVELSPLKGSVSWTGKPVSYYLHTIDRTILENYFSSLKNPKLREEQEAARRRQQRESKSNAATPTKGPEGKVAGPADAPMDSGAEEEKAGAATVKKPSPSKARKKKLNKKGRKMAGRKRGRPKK
T3 sequence (P14902 whole entry): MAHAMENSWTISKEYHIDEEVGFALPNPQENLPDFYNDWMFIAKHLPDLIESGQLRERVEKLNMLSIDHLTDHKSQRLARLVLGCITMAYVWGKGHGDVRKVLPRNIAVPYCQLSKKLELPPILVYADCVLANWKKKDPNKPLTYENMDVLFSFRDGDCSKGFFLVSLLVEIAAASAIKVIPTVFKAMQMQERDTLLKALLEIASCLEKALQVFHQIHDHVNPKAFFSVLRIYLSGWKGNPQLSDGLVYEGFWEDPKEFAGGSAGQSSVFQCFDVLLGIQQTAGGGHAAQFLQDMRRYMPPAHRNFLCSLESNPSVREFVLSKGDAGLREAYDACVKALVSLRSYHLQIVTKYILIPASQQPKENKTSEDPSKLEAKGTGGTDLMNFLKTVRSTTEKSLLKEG
Sequence of AAK1 (121-471) (Q2M2I8 46-315 limits assumed): as the sequence (Q2M2I8 46-315 limits assumed) above
T2 sequence (Q96NX5 1-320): as the sequence (Q96NX5 1-320) above
Sequence of JNK3 (P53779 whole entry, species assumed): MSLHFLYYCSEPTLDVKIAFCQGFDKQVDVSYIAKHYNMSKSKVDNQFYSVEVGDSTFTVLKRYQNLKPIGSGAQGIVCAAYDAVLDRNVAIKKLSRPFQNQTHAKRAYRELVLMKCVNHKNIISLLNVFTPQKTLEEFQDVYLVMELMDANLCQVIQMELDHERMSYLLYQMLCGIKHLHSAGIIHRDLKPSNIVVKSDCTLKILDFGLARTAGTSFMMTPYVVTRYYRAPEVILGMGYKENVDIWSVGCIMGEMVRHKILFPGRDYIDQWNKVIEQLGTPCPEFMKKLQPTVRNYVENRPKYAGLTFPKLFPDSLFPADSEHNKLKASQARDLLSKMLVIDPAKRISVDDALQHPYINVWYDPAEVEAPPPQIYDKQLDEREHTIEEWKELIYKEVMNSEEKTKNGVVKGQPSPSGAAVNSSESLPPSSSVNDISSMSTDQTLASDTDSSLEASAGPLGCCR
Sequence of JNK2 (P45984 whole entry, species assumed): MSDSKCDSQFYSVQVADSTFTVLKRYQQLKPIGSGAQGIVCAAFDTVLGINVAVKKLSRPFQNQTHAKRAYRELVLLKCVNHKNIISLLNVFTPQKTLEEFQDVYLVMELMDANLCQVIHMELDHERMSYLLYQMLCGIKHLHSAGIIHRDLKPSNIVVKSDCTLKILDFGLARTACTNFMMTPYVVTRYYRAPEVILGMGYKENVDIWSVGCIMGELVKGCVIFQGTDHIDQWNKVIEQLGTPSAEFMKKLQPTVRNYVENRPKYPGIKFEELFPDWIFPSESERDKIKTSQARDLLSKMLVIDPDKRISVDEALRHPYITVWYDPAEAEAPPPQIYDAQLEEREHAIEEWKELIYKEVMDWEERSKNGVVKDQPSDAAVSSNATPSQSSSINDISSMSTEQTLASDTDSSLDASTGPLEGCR
T4 sequence (Q8TEK3 1-416): as the sequence (Q8TEK3 1-416) above
T6 sequence (P14902 whole entry, the tested form may be a part): as the sequence (P14902 whole entry) above

Row | SMILES | STD-NMR hit (CAMK1G (1-320)) | Kd (IDO1; [2]) | STD-NMR hit (AAK1 (121-471)) | Kd (AAK1) | Kd (CAMK1G) | stability with GSH (in words) [1] | ITC validation (KD) (DOT1L) | other results
1 | Brc1cnc2cnccn12 [Fragment 0120] | fragment hits | – | – | – | – | – | None of these could be validated with ITC | –
2 | Cn1c(=O)c2[nH]c(Cl)nc2n(C)c1=O [Fragment 1216] | – | 390 µM | – | – | – | sufficiently stable | – | LE (IDO1; LE=1/N⋅1.4⋅−log(KD), IDO1): 0.34; LELP (IDO1; LELP= logP/LE, IDO1): −1.92
3 | Nc1ccc2[nH]cnc2c1Br [Fragment 7409] | – | – | – | 6 µM | – | sufficiently stable | – | LE (AAK1; LE=1/N⋅1.4⋅−log(KD), AAK1): 0.67; LELP (AAK1; LELP= logP/LE, AAK1): 2.86; LE (CAMK1G; LE=1/N⋅1.4⋅−log(KD), CAMK1G): over 0.4
4 | Clc1ncnc2cc[nH]c12 [Fragment 9595, 4-chloro-5H-pyrrolo[3,2-d]pyrimidine] | – | – | binds | 6 µM | – | sufficiently stable | – | Kd (JNK2): 67 µM; Kd (JNK3): 130 µM

More lines, main results first:

Row | STD-NMR hit (CAMK1G (1-320)) | Kd (IDO1; [2]) | STD-NMR hit (AAK1 (121-471)) | Kd (AAK1) | Kd (CAMK1G) | stability with GSH (in words) [1] | SMILES | ITC validation (KD) (DOT1L) | other results
5 | STD hit | > 1000 µM | STD hit | 18 µM | 190 µM | – | Cc1n[nH]c(C)c1I [Fragment 0459] | None of these could be validated with ITC; also recorded: beyond the limits of ITC | KD (IDO1; [2]): too low to derive reliable affinity determination; STD-NMR hit (DOT1L (1-416)): STD hit; STD-NMR hit (IDO1 (1-435)): STD hit
6 | – | – | – | – | 130 µM | – | Cc1c(Cl)cnc(N)c1Cl [Fragment 7405] | None of these could be validated with ITC | –
